Test results taken from patent EP0840781B1, “METHODS AND DEVICES FOR THE REMOVAL OF PSORALENS FROM BLOOD PRODUCTS” (Cerus Corporation, priority 1995, dated 1996).
Read-outs that look alike come from different tables or passages of the source.

Tests used:
Pseudomonas = test: Bacterial inactivation by compound plus UVA, colony forming units; type: cell-based; conditions: 16 µM; 5 J/cm^2 irradiation; starting titer 6.5 logs
Procedure: In this example bacterial inactivation by the photoreactive nucleic acid binding compounds described herein was measured as a function of the ability of the bacteria to subsequently replicate. A gram negative bacteria was chosen as representative of the more difficult bacterial strains to inactivate.
The bacteria a strain of Pseudomonas, was inoculated into LB with a sterile loop and grown overnight in a shaker at 37°C. Based on the approximation that one OD at 610 nm is equivalent to 5 x 10^8 colony forming units (cfu)/mL, a 1:10 dilution of the culture was measured on a spectrophotometer. (manufactured by Shimatsu). The bacterial culture was added to a solution of 15% fetal bovine serum in DMEM to a final bacteria concentration of approximately 10^6/mL. An aliquot (0.8 mL) was transferred to a 1.5 mL snap-top polyethylene tube. An aliquot (0.004-0.040 mL) of the test compound stock solution prepared in water, ethanol or dimethylsulfoxide at 0.80-8.0 mM was added to the tube. Compounds were tested at a concentration of 16 µM. The tubes were placed in a light device as described in EXAMPLE I and irradiated with 1.3 J/cm^2, 1.2 J/cm^2, and finally 2.5 J/cm^2, for a total of 5 J/cm^2. 150 µL were removed for testing after each pulse period. Sterile 13 mL dilution tubes were prepared; each test compound required one tube with 0.4 mL of LB broth and four tubes containing 0.5 mL of LB broth. To make the dilutions, a 0.050 mL aliquot of the irradiated solution of phage and test compound was added to the first dilution tube of […] of media then 0.050 mL of this solution was added to the second tube of 0.5 mL medium (1:10). The second solution was then diluted serially (1:10) into the remaining tubes. 100 µL of the original sample and each dilution are plated separately onto LB agar plates and incubated at 37 °C overnight. The colony forming units were then counted the following morning and the titer of the phage remaining after phototreatment was calculated based on the dilution factors.
The following controls were run: the "bacteria only" in which bacteria was not treated with test compound and not irradiated (listed as "starting titer" in the tables below); the "UV only" in which the bacteria was irradiated in the absence of test compound. Dark controls were not performed here for reasons set forth in Example 12 above.

HIV-1 = conditions: 1 Minute Irradiation
Procedure: Pathogen inactivation efficiency of several compounds described herein was evaluated by examining the ability of the compounds to inactivate cell-free virus (HIV). Inactivation of cell-free HIV was performed as follows.
As in the R17 assay, small aliquots of the compounds listed in TABLES 10 and 11, below, at the concentrations listed in the table, were added to stock HIV-1 to a total of 0.5 mL. The stock HIV (10^5 - 10^7 plaque forming units/mL) was in DMEM/15% FBS. […] Controls included HIV-I stock only, HIV-1 plus UVA only, and HIV-I plus the highest concentration of each psoralen tested, with no UVA. Post irradiation. all samples were store frozen at -70° C until assayed for infectivity by a microtiter plaque assay. Aliquots for measurement of residual HIV infectivity in the samples treated with a compound of the present invention were withdrawn and cultured.
Residual HIV infectivity was assayed using an MT-2 infectivity assay. […] The assay medium was 85% DMEM (with a high glucose concentration) containing 100 µg of streptomycin, 100 U of penicillin, 50 µg of gentamicin, and 1 µg of amphotericin B per mL, 15% FBS and 2 µg of Polybrene (Sigma Chemical Co., St. Louis, Mo.) per mL. Test and control samples from the inactivation procedure were diluted in 50% assay medium and 50% normal human pooled plasma. The samples were serially diluted directly in 96-well plates (Coming Glass Works, Coming, N.Y.). The plates were mixed on an oscillatory shaker for 30 seconds and incubated at 37°C in a 5% CO2 atmosphere for 1 to 18 hours. […] After an additional 1 hour of incubation at 37°C in 5% CO2, 0.075 mL of assay medium containing 1.6% SeaPlaque agarose (FMC Bioproducts, Rockland, Maine) and prewarmed to 38.5°C was added to each well. The plates were kept at 37°C for a few minutes until several plates had accumulated and then centrifuged in plate carriers at 600 x g for 20 minutes in a centrifuge precooled to 10°C. In the centrifuge, cell monolayers formed prior to gelling of the agarose layer. The plates were incubated for 5 days at 37°C in 5% CO2 and stained by the addition of 0.05 mL of 50 µg/mL propidium iodide (Sigma Chemical Co.) in phosphate-buffered saline (pH 7.4) to each well. After 24 to 48 hours, the red fluorescence-stained microplaques were visualized by placing the plates on an 8,000 µW/cm^2 304 nm UV light box (Fotodyne, Inc., New Berlin, Wis.). The plaques were counted at a magnification of x20 to x25 through a stereomicroscope.

R17 = test: r-17 bacteriophage assay: R17 treated with compound and UVA, remaining titer by plaque count on Hfr 3000 bacteria; type: cell-based; conditions: for R17 inactivation efficiency compared with AMT: varying concentration (Tables 7 and 8, FIGS. 6-10)
Procedure: In the r-17 assay, the bacteriophage was placed in a solution with each compound tested and was then irradiated. The ability of the phage to subsequently infect bacteria and inhibit their growth was measured. The bacteriophage was selected for its relatively accessible nucleic acid such that the culture growth inhibition would accurately reflect nucleic acid damage by the test compounds. The bacteriophage assay for nucleic acid binding to test compounds offers a safe and inexpensive procedure to identify compounds likely to display efficient pathogen inactivation. Previous experiments support that the r-17 assay accurately measures HIV-1 sensitivity to similar compounds. […] Modified Eagles Medium (DMEM) to a final phage concentration of 10^9/mL. An aliquot (0.5 mL) was transferred to a 1.5 mL snap-top polyethylene tube. […] Louis, MO). The tubes were placed in a light device as described in EXAMPLE 1 and irradiated for between 1 and 10 minutes. […] To make the dilutions. a 0.100 mL aliquot of the irradiated solution of phage and test compound was added to the first dilution tube of 0.4 mL of media then 0.020 mL of this solution was added to the second tube of 0.5 mL medium (1:25). […] After the top agar hardened, the plates were incubated at 37 °C overnight. The plaque forming units were then counted the following morning and the titer of the phage remaining after phototreatment was calculated based on the dilution factors. The following controls were run: the "phage only" in which phage was not treated with test compound and not irradiated (listed as "starting titer" in the tables below); the "UV only" in which the phage was irradiated in the absence of test compound; and the "dark" control in which the phage/test compound solution was not irradiated before it was diluted and plated. Compounds described herein were also tested at a constant concentration for varying doses of UV light. […] The compound tested was added at the desired concentration and the samples were vortexed. […] Between each 1.0 J/cm^2 intervals, 100µL was removed from each sample and placed in the first corresponding dilution tube, then five sequential dilutions were performed for each compound tested, at all 3 irradiation doses, as described above in this example. […] The contents of each tube was poured into its own LB plate and the plates were incubated overnight at 37 °C. Plaques were counted by visual inspection the following morning.

Male Balb/c mice = conditions: for bone marrow toxicity or micronucleus formation: experiment repeated using increased dose levels
Procedure: Male Balb/c mice were then injected with 0.1 ml of a compound solution via the tail vein. At least 3 mice were injected per dose level Saline only was used as a negative control. For a positive control, cyclophosphamide (cycloPP) was administered at a dose of 30 mg/kg. In the experimental group, the injections were repeated once per day for four days. In the positive control group, the sample was administered only once, on day three. On day 5, several microliters of blood were withdrawn from each subject and smeared on a glass slide. Cells were fixed in absolute methanol and stored in a slide rack.
For analysis, cells were stained with acridine orange and visualized under a fluorescence microscope by counting: (i) the number of reticulocytes per 5000 erythrocytes; and (ii) the number of micronucleated reticulocytes per 1000 reticulocytes. Reticulocytes were distinguished by their red fluorescence due to the presence of RNA. Micronuclei were distinguished by their green fluorescence due to the presence of DNA. The percentage of reticulocytes (%PCE) was then calculated. A decrease in the frequency of erythrocytes, represented by an increase in the percentage of reticulocytes, is an indication of bone marrow toxicity. The percentage of reticulocytes with micronuclei (%PCE with MN) was also calculated. An increase in %PCE with MN is a measure of elastogenicity.
After initial results were determined, the experiment was repeated using increased dose levels, until: (i) Micronucleus formation was seen; or (ii). Bone marrow toxicity was observed; or (iii) The lethal dose was reached; or (iv) A dose of 5 g/kg was administered.

[1] = 16 µM, HIV Starting Titer Approximately 5 Logs (Table 10)
[2] = 8 µM, 1 Minute Irradiation, Starting Titer Approx. 7.2 Logs (Table 7)
[3] = 16 µM, 1 Minute Irradiation, Starting Titer Approx. 7.1 Logs (Table 9)
[4] = 16 µM, 1 Minute Irradiation, Starting Titer Approx. 7.2 Logs (Table 7)
[5] = 16 µM, 1 Minute irradiation = 1.2 J/cm^2, Starting Titer Approx. 7.1 Logs (Table 8)
[6] = 32 µM, 1 Minute Irradiation, Starting Titer Approx. 7.2 Logs (Table 7)
[7] = 32 µM, 1 Minute irradiation = 1.2 J/cm^2, Starting Titer Approx. 7.1 Logs (Table 8)
[8] = 16 µM, HIV Starting Titer Approximately 5.4 Logs (Table 11)
[9] = 32 µM, HIV Starting Titer Approximately 5.4 Logs (Table 11)
[10] = 64 µM, HIV Starting Titer Approximately 5.4 Logs (Table 11)
[11] = 32 µM, HIV Starting Titer Approximately 5 Logs (Table 10)
[12] = 64 µM, HIV Starting Titer Approximately 5 Logs (Table 10)
[13] = male, Balb/c, mouse, in vivo, 25 mg/kg, 5 day
[14] = male, Balb/c, mouse, in vivo, 40 mg/kg, 5 day

Row | SMILES | log kill of bacteria (Pseudomonas) (Pseudomonas) | HIV Log Kill (HIV-1; [1]) | R17 Log Kill (R17; [2]) | R17 Log Kill (R17; [3]) | R17 Log Kill (R17; [4]) | R17 Log Kill (R17; [5]) | R17 Log Kill (R17; [6]) | R17 Log Kill (R17; [7]) | HIV Log Kill (HIV-1; [8]) | HIV Log Kill (HIV-1; [9]) | HIV Log Kill (HIV-1; [10]) | bone marrow toxicity or micronucleus formation (Male Balb/c mice) | HIV Log Kill (HIV-1; [11]) | HIV Log Kill (HIV-1; [12]) | R17 inactivation efficiency compared with AMT (R17) | other results
1 | Cc1oc2c(C)c3oc(=O)cc(C)c3cc2c1CN [AMT, 4'-Aminomethyl-4,5',8-trimethylpsoralen, reference compound] | 5.2 logs | 1.4 | 2.7 | >6 | 4.6 | 4.5 | >6.2 | 4.8 | – | – | – | – | – | – | – | R17 Log Kill (R17; 32 µM, 1 Minute Irradiation, Starting Titer Approx. 7.1 Logs (Table 9)): >6; R17 log kill (32 µM) (R17; 32 µM, 1 Minute Irradiation, Starting Titer Approx. 7.5 Logs (Table 6)): >6.7
2 | Cc1cc(=O)oc2c(C)c3oc(COCCN)c(C)c3cc12 [Compound 18, 5'-(4-amino-2-oxa)butyl-4,4',8-trimethylpsoralen] | – | – | – | – | – | – | – | – | 1.0 | 1.0 | 3.1 | the acutely lethal dose was reached before there were any signs of bone marrow toxicity or micronucleus formation | – | – | – | –
3 | Cc1oc2c(C)c3oc(=O)cc(C)c3cc2c1CNCCCCN [Compound 6, 4'-(6-amino-2-aza)hexyl4,5',8-trimethylpsoralen] | > 5.5 logs | 2.0 | – | >6 | – | 6.1 | – | >6.1 | 2.1 | 3.2 | >2.8 | the acutely lethal dose was reached before there were any signs of bone marrow toxicity or micronucleus formation | 3.1 | >3.8 | significantly higher inactivation efficiency than does AMT | R17 Log Kill (R17; 8 µM, 1 Minute Irradiation, Starting Titer Approx. 7.1 Logs (Table 9)): >6; R17 Log Kill (R17; 64 µM, 1 Minute irradiation = 1.2 J/cm^2, Starting Titer Approx. 7.1 Logs (Table 8)): >6.1; efficiency at inactivating R17 compared with AMT (R17; constant concentration, varying doses of UV light 1.0-3.0 J/cm^2 (FIGS. 11-17)): more efficient at inactivating R17 than was AMT; PCE/RBC (%) (Male Balb/c mice; Dose 45 mg/kg, tail vein, once per day for four days, blood on day 5): 3.79 ± 10.41%
4 | Cc1oc2c(C)c3oc(=O)cc(C)c3cc2c1COCCN [Compound 2, 4'-(4-amino-2-oxa)butyl-4,5',8-trimethylpsoralen] | > 5.5 logs | 1.4 | 3.8 | – | >6.2 | – | >6.2 | – | – | – | – | the acutely lethal dose was reached before there were any signs of bone marrow toxicity or micronucleus formation | 3.8 | >4.5 | significantly higher inactivation efficiency than does AMT | PCE + MN (%) (Male Balb/c mice; [13]): 0.25 ± 0.11%; PCE/RBC (%) (Male Balb/c mice; [13]): 3.46 ± 0.32%; PCE + MN (%) (Male Balb/c mice; [14]): 0.20 ± 0.14%; PCE/RBC (%) (Male Balb/c mice; [14]): 3.08 ± 0.82%
